Measurements reported in paper PMC5903342 (Oxidative Medicine and Cellular Longevity, 2018).
Entries after “also recorded” stand apart in the source; their conditions may differ.

How the values were obtained:
[1] = DPPH free radical scavenging assay; format: biochemical; details: absorbance at 517 nm
Description: The free radical scavenging activity was measured by following microplate procedures as previously described. One hundred microliters of the sample dilutions with five concentration levels (varying from 0 to 2000 μM in DMSO) was added to two identical groups of wells in a 96-well microplate. The same volume of 0.1 mM DPPH-methanol solution was added to each well of one group (samples), and methanol ([…]) was added to the other group (blanks). The control was prepared by mixing the DPPH-methanol solution with the sample solvent or butylated hydroxytoluene (BHT). The solutions were mixed thoroughly, covered, and allowed to react in the dark at room temperature for 40 min. The absorbance was measured at 517 nm using a microplate reader (Quant, BioTek Instruments Inc.), and the scavenging activity was calculated from the absorbance values according to the following equation: […]. The antioxidant properties of the samples were expressed as half the maximal effective concentrations (EC50) obtained by interpolation from the linear regression analysis. BHT was used as the positive control.

[2] = system: Salmonella enterica serovar typhimurium TA104; test: Antimutagenicity assay (Salmonella/microsome), strain TA104; format: cell-based; details: TA104, cotreatment
Source text: (§1) Salmonella enterica serovar typhimurium (S. typhimurium) strains TA100, TA1535, TA104, and TA102 from the authors' laboratory stock were used as described by Maron and Ames in the antimutagenicity assay.
(§2) We carried out the coexposure protocol of the antimutagenicity assay to investigate the potential of the compound to protect against alkylation-mediated genetic mutation in S. typhimurium TA100, TA102, TA104, and TA1535 strains according to Ajith and Soja. The test proceeded both in the absence and presence of a metabolic activation system (4% S9 mix, Aroclor preinduced, from MOLTOX Inc., USA). DMSO 1% served as the negative control. […] The mixtures were incubated in a shaker at 37°C (preincubation) under light protection. After a total of 60 min of cotreatment, the mixtures were added to and mixed with 2 mL top agar containing 0.05 mmol/L L-histidine and D-biotin for the S. typhimurium strains. Each of these was then spread on a minimal glucose agar (1.5% agar, Vogel-Bonner medium E, containing 2% glucose) plate. After the top agar solidified, the plates were incubated at 37°C for 60–72 h. Each tester strain was assayed in triplicate and repeated at least twice, and the number of revertant colonies was counted for each tester strain and treatment group. The counts of revertant colonies were obtained to build a dose-response curve and calculate the percentage of reduction.

[3] = system: Salmonella enterica serovar typhimurium TA102; test: Antimutagenicity assay (Salmonella/microsome), strain TA102; format: cell-based; details: TA102, cotreatment
Source text: as §1, §2

HepG2 cells [4] = test: Cytoprotective assay of HepG2 cells (WST-1, coexposure with alkylating agent at LC50); format: cell-based, Human; details: 24 h coexposure with 20 μM MMS, AVA at 1.0 and 10.0 μM
Description: After 24 h of coexposure, the culture medium was replaced by a 90 μL fresh culture medium and 10 μL WST-1 and incubated at 37°C and 5% CO2 for 2 h. The absorbance was then measured following the protocol as described before. The survival rates were determined in comparison to the negative control.

HepG2 cells [5] = test: Flow cytometry cell cycle analysis; format: cell-based, Human; details: 24 h
Description: The cells (1 × 10^5) were washed in PBS solution and centrifuged at 400 ×g for 5 min, and after, the cells were suspended in DNA staining solution (0.3% Triton X-100 and 50 μg/mL propidium iodide (PI) in a 43 mM citrate buffer), as previously described. After 45 minutes of treatment with 50 μg/mL ribonuclease A (Sigma, EUA), the PI fluorescence was determined (10,000 events per sample) in a Gallios flow cytometer (Beckman Coulter, USA). Data were analyzed by the Summit v4.3 software. The experiments were done at least three times, and statistical analysis was performed by one-way ANOVA followed by a Tukey's post hoc test.

[6] = +S9, CPA (150 μM), atorvastatin 20 μM
[7] = +S9, CPA (150 μM), atorvastatin 100 μM
[8] = +S9, CPA (150 μM), atorvastatin 200 μM
[9] = +S9, CPA (150 μM), atorvastatin 1000 μM
[10] = +S9, CPA (150 μM), atorvastatin 1000 μM, listed as Atorvastatin
[11] = −S9, MMS (100 μM), atorvastatin 20 μM
[12] = −S9, MMS (100 μM), atorvastatin 100 μM
[13] = −S9, MMS (100 μM), atorvastatin 200 μM
[14] = −S9, MMS (100 μM), atorvastatin 200 μM, listed as Atorvastatin
[15] = −S9, MMS (100 μM), atorvastatin 1000 μM
[16] = −S9, MMS (100 μM), atorvastatin 1000 μM, listed as Atorvastatin

CC(C)c1c(C(=O)Nc2ccccc2)c(-c2ccccc2)c(-c2ccc(F)cc2)n1CC[C@@H](O)C[C@@H](O)CC(=O)O [AVA, atorvastatin]
EC50 [1]: 274 ± 3 µM | % reduction [2, 6]: 19.29% | His+ (revertant colonies) [2, 6]: 969 ± 54 | % reduction [2, 7]: 25% | His+ (revertant colonies) [2, 7]: 933 ± 38 | % reduction ([2]; +S9, CPA (150 μM), atorvastatin 100 μM, listed as Atorvastatin): 25.00^∗ % | % reduction [2, 8]: 29% | His+ (revertant colonies) [2, 8]: 905 ± 42 | % reduction ([2]; +S9, CPA (150 μM), atorvastatin 200 μM, listed as Atorvastatin): 29.29^∗ % | % reduction [2, 9]: 41% | His+ (revertant colonies) [2, 9]: 829 ± 11 | % reduction [2, 10]: 41.43^∗ % | % reduction [2, 11]: 19.36% | His+ (revertant colonies) [2, 11]: 801 ± 32 | % reduction [2, 12]: 24.19% | His+ (revertant colonies) [2, 12]: 776 ± 64 | % reduction [2, 13]: 32.3% | His+ (revertant colonies) [2, 13]: 736 ± 91 | % reduction [2, 14]: 32.26^∗ % | % reduction [2, 15]: 55.7% | His+ (revertant colonies) [2, 15]: 620 ± 28 | % reduction [2, 16]: 55.65^∗ % | % reduction [3, 6]: 7.27% | His+ (revertant colonies) [3, 6]: 566 ± 54 | % reduction [3, 7]: 9.09% | His+ (revertant colonies) [3, 7]: 560 ± 38 | % reduction [3, 8]: 14.55% | His+ (revertant colonies) [3, 8]: 543 ± 42 | % reduction [3, 9]: 30% | His+ (revertant colonies) [3, 9]: 496 ± 11 | % reduction [3, 10]: 30.00^∗ % | % reduction [3, 11]: 16.03% | His+ (revertant colonies) [3, 11]: 525 ± 32 | % reduction [3, 12]: 19.08% | His+ (revertant colonies) [3, 12]: 515 ± 64 | % reduction [3, 13]: 29% | His+ (revertant colonies) [3, 13]: 483 ± 91 | % reduction [3, 14]: 29.01^∗ % | % reduction [3, 15]: 41.2% | His+ (revertant colonies) [3, 15]: 443 ± 28 | % reduction [3, 16]: 41.22^∗ % | Cytoprotective effect (survival of HepG2 coexposed to MMS) (HepG2 cells [4]): significant protection; also recorded: significant cytoprotective effect | Cell cycle pattern (HepG2 cells [5]; 25 μM AVA alone, in comparison to the control): did not induce alterations | Effect on G1, S and G2 phases (HepG2 cells [5]; AVA and CPA cotreatment): did not affect | Effect on G1 and S phases (HepG2 cells [5]; AVA and MMS cotreatment): did not affect | Number of cells in the G2 phase (HepG2 cells [5]; AVA and MMS cotreatment): restored | sub-G1 percentage of cells (HepG2 cells [5]; cotreatment 20 μM MMS + AVA 1 μM): 12% | sub-G1 percentage of cells (HepG2 cells [5]; cotreatment 20 μM MMS + AVA 10 μM): 4% | sub-G1 percentage of cells (HepG2 cells [5]; cotreatment 20 μM MMS + AVA 25 μM): 2% | polyploid subpopulation (HepG2 cells [5]; cotreatment AVA + 20 μM MMS): 3-4% | sub-G1 percentage of cells (HepG2 cells [5]; cotreatment AVA + CPA, no dose dependence): 3-4% | Cell cycle pattern (HepG2 cells [5]; cotreatment with 25 μM AVA in MMS-exposed (20 μM) cells): restored the cell cycle pattern
